# Laboratory results: publication PMC6599250, “Functional diversity of inhibitors tackling the differentiation blockage of MLL-rearranged leukemia” (Journal of Hematology & Oncology, 2019)
# Like-named read-outs stand apart in the source and are kept apart here.
# Legend:
# Assay type in all cases: cell-based
# Jurkat (MLL-WT) cells = assay: Cell proliferation (alamarBlue) Jurkat; conditions: Homo sapiens, Jurkat (MLL-WT)
# Procedure: (§1) Cells were seeded in the optimal growth medium at 4000–5000 cells/well in a 96 MTP and cultured 18–24 h before inhibitor treatment.
# HL-60 (MLL-WT) cells = assay: Cell proliferation (alamarBlue) HL-60; conditions: Homo sapiens, HL-60 (MLL-WT), read-out: IC50 proliferation
# Procedure: as §1
# [1] = tested on: MV4-11, MOLM-13 and HL-60 cells; assay: Cell proliferation, all three tested AML cell lines; conditions: 96 h; all tested cell lines (MV4-11, MOLM-13, HL-60), 4 days of treatment (Fig. 1a); read-out: anti-proliferation IC50s
# Procedure: Cells were seeded in the optimal growth medium at 4000–5000 cells/well in a 96 MTP and cultured 18–24 h before inhibitor treatment. Upon treatment with the indicated inhibitor, cells were cultured for 24 h, 96 h, and 168 h and effects on proliferation were determined using alamarBlue Cell Viability Reagent (Thermo Fisher Scientific, Waltham, MA, USA).
# ML-2 (MLL-AF6) cells = assay: Cell proliferation (alamarBlue) ML-2; conditions: ML-2 (MLL-AF6), read-out: IC50 proliferation
# Procedure: as §1
# OCI-AML-5 (MLL-WT) cells = assay: Cell proliferation (alamarBlue) OCI-AML-5; conditions: Homo sapiens, OCI-AML-5, OCI-AML-5 (MLL-WT), read-out: IC50 proliferation
# Procedure: as §1
# MOLM-14 (MLL-AF9) cells = assay: Cell proliferation (alamarBlue) MOLM-14; conditions: Homo sapiens, MOLM-14, MOLM-14 (MLL-AF9), read-out: IC50 proliferation
# Procedure: as §1
# NOMO-1 (MLL-AF9) cells = assay: Cell proliferation (alamarBlue) NOMO-1; conditions: Homo sapiens, NOMO-1, NOMO-1 (MLL-AF9), read-out: IC50 proliferation
# Procedure: as §1
# [2] = tested on: OCI-AML-2 (MLL-AF9) cells; assay: Cell proliferation (alamarBlue) OCI-AML-2; conditions: Homo sapiens, OCI-AML2, OCI-AML-2 (MLL-AF9), read-out: IC50 proliferation
# Procedure: as §1
# MOLM-13 (MLL-AF9) cells = assay: Cell proliferation (alamarBlue) MOLM-13; conditions: Homo sapiens, MOLM-13, MOLM-13 (MLL-AF9), read-out: IC50 proliferation
# Procedure: as §1
# EOL-1 (MLL-TD) cells = assay: Cell proliferation (alamarBlue) EOL-1; conditions: Homo sapiens, EOL1, EOL-1 (MLL-TD), read-out: IC50 proliferation
# Procedure: as §1
# MV4-11 (MLL-AF4) cells = assay: Cell proliferation (alamarBlue) MV4-11; conditions: Homo sapiens, MV4-11, MV4-11 (MLL-AF4), read-out: IC50 proliferation
# Procedure: as §1
# [3] = tested on: MV4-11, MOLM-13 and HL-60 cells; assay: Cell cycle analysis (PI, flow cytometry); conditions: 4 days of treatment (Figure S2)
# Procedure: Cells were washed with PBS and fixed overnight at − 20 °C with 70% ethanol. Fixed cells were stained with PI solution (Sigma-Aldrich St. Louis, MO, USA) solution containing RNase A (Qiagen, Hilden, Germany). Fluorescence was measured with FACS Canto II (BD Biosciences, Heidelberg, Germany) flow cytometer and data was analyzed with FACSDiva software.
# SEM (MLL-AF4) cells = assay: Cell proliferation (alamarBlue) SEM; conditions: SEM (MLL-AF4), read-out: IC50 proliferation
# Procedure: as §1
# HL-60 cells = assay: CD11b protein expression by flow cytometry, HL-60; conditions: non-fused HL-60 cell line, 4 and 7 days of treatment
# Procedure: Four thousand cells per well were seeded 24 h before they were treated with the indicated inhibitor in a 96 MTP. After 4 or 7 days of treatment, cells were washed with PBS and stained with CD11b - APC (BioLegend, San Diego, California, USA) and DAPI (Thermo Fisher Scientific, Waltham, Massachusetts, USA) or AnnexinV – FITC (BioLegend, San Diego, California, USA) and PI solution (Sigma-Aldrich St. Louis, Missouri, USA) using the FACS Canto II (BD Biosciences, Heidelberg, Germany) and data was analyzed with FACSDiva software.
# RS4;11 (MLL-AF4) cells = assay: Cell proliferation (alamarBlue) RS4;11; conditions: Homo sapiens, RS4-11, RS4;11 (MLL-AF4), read-out: IC50 proliferation
# Procedure: as §1
# OCI-AML-3 (MLL-WT) cells = assay: Cell proliferation (alamarBlue) OCI-AML-3; conditions: Homo sapiens, OCI-AML-3, OCI-AML-3 (MLL-WT), read-out: IC50 proliferation
# Procedure: as §1
# KOPN-8 (MLL-ENL) cells = assay: Cell proliferation (alamarBlue) KOPN-8; conditions: Homo sapiens, KOPN-8, KOPN-8 (MLL-ENL), read-out: IC50 proliferation
# Procedure: as §1
structure (smiles),measurement,setting,value
COc1cc(F)ccc1-c1cc(Nc2cc(CS(C)(=N)=O)ccn2)ncc1F (stereo not drawn) [BAY 1251152],IC50,"Jurkat (MLL-WT) cells; D1, read-out: IC50 proliferation",140 nM
same,IC50,"Jurkat (MLL-WT) cells; D4, read-out: IC50 proliferation",30 nM
same,IC50,"Jurkat (MLL-WT) cells; D7, read-out: IC50 proliferation",30 nM
same,IC50,"HL-60 (MLL-WT) cells; 24 h, 1 day of treatment (D1)",140 nM
same,IC50,"HL-60 (MLL-WT) cells; 96 h, 4 days of treatment (D4)",110 nM
same,IC50,"HL-60 (MLL-WT) cells; 168 h, 7 days of treatment (D7)",240 nM
same,IC50,[1],30 to 140 nM
same,IC50,ML-2 (MLL-AF6) cells; D1,110 nM
same,IC50,ML-2 (MLL-AF6) cells; D4,200 nM
same,IC50,ML-2 (MLL-AF6) cells; D7,230 nM
same,IC50,OCI-AML-5 (MLL-WT) cells; D1,160 nM
same,IC50,OCI-AML-5 (MLL-WT) cells; D4,50 nM
same,IC50,OCI-AML-5 (MLL-WT) cells; D7,30 nM
same,IC50,MOLM-14 (MLL-AF9) cells; D1,40 nM
same,IC50,MOLM-14 (MLL-AF9) cells; D4,40 nM
same,IC50,MOLM-14 (MLL-AF9) cells; D7,70 nM
same,IC50,NOMO-1 (MLL-AF9) cells; D1,240 nM
same,IC50,NOMO-1 (MLL-AF9) cells; D4,60 nM
same,IC50,NOMO-1 (MLL-AF9) cells; D7,100 nM
same,IC50,[2]; D1,70 nM
same,IC50,[2]; D4,110 nM
same,IC50,[2]; D7,70 nM
same,IC50,MOLM-13 (MLL-AF9) cells; D1,70 nM
same,IC50,MOLM-13 (MLL-AF9) cells; D4,60 nM
same,IC50,MOLM-13 (MLL-AF9) cells; D7,70 nM
same,IC50,EOL-1 (MLL-TD) cells; D1,70 nM
same,IC50,EOL-1 (MLL-TD) cells; D4,30 nM
same,IC50,EOL-1 (MLL-TD) cells; D7,60 nM
same,IC50,MV4-11 (MLL-AF4) cells; D1,230 nM
same,IC50,MV4-11 (MLL-AF4) cells; D4,70 nM
same,IC50,MV4-11 (MLL-AF4) cells; D7,220 nM
same,cell cycle effect,[3],decrease of cells in S and G2/M phase with increasing concentrations
same,IC50,SEM (MLL-AF4) cells; D1,260 nM
same,IC50,SEM (MLL-AF4) cells; D4,90 nM
same,IC50,SEM (MLL-AF4) cells; D7,200 nM
same,CD11b level,HL-60 cells,treatment did
same,IC50,RS4;11 (MLL-AF4) cells; D1,110 nM
same,IC50,RS4;11 (MLL-AF4) cells; D4,90 nM
same,IC50,RS4;11 (MLL-AF4) cells; D7,90 nM
same,IC50,OCI-AML-3 (MLL-WT) cells; D1,90 nM
same,IC50,OCI-AML-3 (MLL-WT) cells; D4,110 nM
same,IC50,OCI-AML-3 (MLL-WT) cells; D7,180 nM
same,IC50,KOPN-8 (MLL-ENL) cells; D1,160 nM
same,IC50,KOPN-8 (MLL-ENL) cells; D4,120 nM
same,IC50,KOPN-8 (MLL-ENL) cells; D7,210 nM
